Earlier results as cited in patent US20240148758A1, “CONTROLLED RELEASE FORMULATIONS OF HIGHLY LIPOPHILIC PHYSIOLOGICALLY ACTIVE SUBSTANCES” (ADD Advanced Drug Delivery Technologies Ltd., priority 2019, published 2024).

Conditions: decimal logarithm of the n-octanol/water partition coefficient

Structure (SMILES): C=C(C)[C@@H]1CCC(C)=C[C@H]1c1c(O)cc(CCCCC)cc1O [Canapure PH, 2-[1R-3-methyl-6R-(1-methylethenyl)-2-cyclohexen-1-yl]-5-pentyl-1,3-benzenediol]
- log P: about 6.1
